Results: EP4692071A1, “PHOTOCHROMIC COMPOUND, NAPHTHOL DERIVATIVE, CURABLE COMPOSITION, OPTICAL ARTICLE, LENS, AND EYEGLASS” (TOKUYAMA CORPORATION, priority 2023, dated 2024)

Assays:
Type in all cases: physicochemical
[1] = 23°C color optical density (A23): absorbancy difference ε(240)-ε(0) after 240 s light irradiation at 23°C; conditions: 240 s irradiation
Description: (§1) • [1] Maximum Absorption Wavelength (λmax): The maximum absorption wavelength after color development, measured using a spectrophotometer (instantaneous multichannel photodetector MCPD3000) manufactured by Otsuka Electronics Co., Ltd. was used as an indicator for the color tone during the color development. • [2] 23°C Color Optical Density (A23): A difference between an absorbancy measured after light irradiation at 23°C for 240 seconds {ε(240)} and an absorbancy without light irradiation ε(0) at the maximum absorption wavelength was used as an indicator for the color optical density. […] 35°C Color Optical Density (A35): A difference between an absorbancy measured after light irradiation at 35°C for 240 seconds {ε(240)} and an absorbancy without light irradiation ε(0) at the first and second absorption wavelengths was used as an indicator for the color optical density. […] 23°C color fading half-life [τ1/2 (sec.)]: A time required for the absorbancy of the sample at the maximum absorption wavelength to decrease to 1/2 of {ε(240)-ε(0)} when the light irradiation is terminated after the light irradiation at 23°C for 240 seconds, was used as an indicator for the color fading speed. The shorter this time, the higher the color fading speed. • [6] Residual rate (A90/A0×100): The obtained photochromic plastic lens was subjected to accelerated deterioration using a xenon weather meter X25 manufactured by Suga Test Instruments Co., Ltd. for 90 hours. Subsequently, the color optical density was evaluated before and after the test, then a color optical density before the test (A0) and a color optical density after the test (A90) were measured, and a ratio (A90/A0) was defined as a residual rate. The residual rate was used as an indicator for a color developing durability. The higher the residual rate, the higher the color developing durability.

[2] = Residual rate (A90/A0×100) after 90 h accelerated deterioration in xenon weather meter X25, color developing durability; conditions: xenon weather meter 90 hours
Description: as §1

[3] = Maximum absorption wavelength (λmax) after color development, spectrophotometer MCPD3000
Description: as §1

[4] = 35°C color optical density (A35): absorbancy difference ε(240)-ε(0) after 240 s light irradiation at 35°C; conditions: 240 s irradiation
Description: as §1

[5] = High-temperature color development rate (A35/A23×100), temperature dependency
Description: as §1

[6] = cured product by kneading method, 1 mm
[7] = photochromic laminate by coating method, at the maximum absorption wavelength
[8] = photochromic laminate by coating method
[9] = binder sheet (binder method), urethaneurea resin photochromic layer between polycarbonate sheets, 0.25 mmol per 100 parts by mass resin
[10] = photochromic cured product by kneading method, 1 mm thick thiourethane, 0.106 mmol per 100 g monomers
[11] = photochromic laminate by coating method, 40 µm photochromic layer on thiourethane lens, 0.25 mmol compound per 100 g monomers
[12] = binder sheet (binder method), measured at 451 nm absorption maximum
[13] = binder sheet (binder method), measured at 565 nm absorption maximum
[14] = photochromic laminate by coating method, at 451 nm absorption maximum
[15] = photochromic laminate by coating method, at 566 nm absorption maximum

| A23 (-) ([1]; binder sheet (binder method)) | A23 (-) [1, 6] | A23 (-) [1, 7] | Residual rate (%) ([2]; binder sheet (binder method)) | Residual rate (%) [2, 6] [%] | Residual rate (%) [2, 8] [%] | Maximum absorption wavelength (nm) [3, 9] [nm] | Maximum absorption wavelength (nm) [3, 10] [nm] | Maximum absorption wavelength (nm) [3, 11] [nm] | A35 (-) ([4]; binder sheet (binder method)) | A35 (-) [4, 6] | A35 (-) [4, 8] | A35/A23 *100 (%) ([5]; binder sheet (binder method)) | A35/A23 *100 (%) [5, 6] [%] | A35/A23 *100 (%) [5, 8] [%] | Compound | other results |
| --- | --- | --- | --- | --- | --- | --- | --- | --- | --- | --- | --- | --- | --- | --- | --- | --- |
| 1.52 - | 1.51 - | 1.49 - | 94 | 88 | 82 | 510 | 514 | 510 | 1.07 - | 1.07 - | 1.05 - | 70 | 71 | 70 | COc1ccc(C2(c3ccc(OC)cc3)C=Cc3c4c(c5cc(N(c6ccccc6)c6ccccc6)c(OC)cc5c3O2)-c2ccccc2C4(C)C)cc1 [Example 2 Formula (30)] |  |
| 1.11 - | 1.12 - | 1.0897 - | 97 | 90 | 84 | 498 | 502 | 498 | 0.76 - | 0.77 - | 0.74 - | 68 | 69 | 68 | CCCC1(CCC)c2ccccc2-c2c1c1c(c3cc(OC)c(N(C)c4ccccc4)cc23)OC(c2ccc(OC)cc2)(c2ccc(OC)cc2)C=C1 [Example 3 Formula (32)] |  |
| 1.20 - | 1.20 - | 1.18 - | 93 | 84 | 80 | 496 | 500 | 496 | 0.79 - | 0.81 - | 0.78 - | 66 | 67 | 66 | COc1ccc(C2(c3ccc(OC)cc3)C=Cc3c4c(c5cc(N(C)c6ccc(F)cc6)c(OC)cc5c3O2)-c2ccccc2C4(C)C)cc1 [Example 4 Formula (34)] |  |
| 1.37 - |  | 1.34 - | 94 |  | 80 | 499 |  | 499 | 0.97 - |  | 0.95 - | 71 |  | 71 | CCCOc1ccc(C2(c3ccc(OCCC)cc3)C=Cc3c4c(c5cc(N(CCOC)c6ccccc6)c(OC)cc5c3O2)-c2ccccc2C42CCCCCCC2)cc1 [Example 6 Formula (47)] |  |
|  | 1.20 - | 1.18 - |  | 80 | 75 |  | 549 | 545 |  | 0.79 - | 0.75 - |  | 66 | 64 | COc1ccc(C2(c3ccc(N4CCOCC4)cc3)C=Cc3c4c(c5cc(N6CCCc7ccccc76)c(OC)cc5c3O2)-c2ccc(C)cc2C4(CCCC(F)(F)F)CCCC(F)(F)F)cc1 (centres unmarked) [Example 8 Formula (54)] |  |
|  |  |  |  |  |  |  |  |  |  |  |  |  |  | 64 | CCC1(CC)CCC2(CC1)c1ccccc1-c1c2c2c(c3cc(OC)c(N(C)c4ccc(C(F)(F)F)cc4)cc13)OC(c1ccc(C)cc1)(c1ccc(OC)cc1)C=C2 (centres unmarked) [Example 9 Formula (57)] | A23 (-) [1, 12]: 0.75 -; A23 (-) [1, 13]: 0.88 -; A23 (-) ([1]; photochromic laminate by coating method, at the maximum absorption wavelength, at 451 nm absorption maximum): 0.73 -; A23 (-) ([1]; photochromic laminate by coating method, at the maximum absorption wavelength, at 566 nm absorption maximum): 0.86 -; Residual rate (%) [2, 12]: 95%; Residual rate (%) [2, 13]: 96%; Residual rate (%) [2, 14]: 83%; Residual rate (%) [2, 15]: 84%; Maximum absorption wavelength (nm) ([3]; binder sheet (binder method), urethaneurea resin photochromic layer between polycarbonate sheets, 0.25 mmol per 100 parts by mass resin, measured at 451 nm absorption maximum): 451 nm; Maximum absorption wavelength (nm) ([3]; binder sheet (binder method), urethaneurea resin photochromic layer between polycarbonate sheets, 0.25 mmol per 100 parts by mass resin, measured at 565 nm absorption maximum): 565 nm; Maximum absorption wavelength (nm) ([3]; photochromic laminate by coating method, 40 µm photochromic layer on thiourethane lens, 0.25 mmol compound per 100 g monomers, at 451 nm absorption maximum): 451 nm; Maximum absorption wavelength (nm) ([3]; photochromic laminate by coating method, 40 µm photochromic layer on thiourethane lens, 0.25 mmol compound per 100 g monomers, at 566 nm absorption maximum): 566 nm; A35 (-) [4, 12]: 0.49 -; A35 (-) [4, 13]: 0.56 -; A35 (-) [4, 14]: 0.47 -; A35 (-) [4, 15]: 0.55 -; A35/A23 *100 (%) [5, 12]: 66%; A35/A23 *100 (%) [5, 13]: 65% |
| 1.32 - | 1.34 - | 1.3 - | 94 | 89 | 82 | 510 | 514 | 510 | 0.87 - | 0.91 - | 0.86 - | 66 | 68 | 66 | CCCC1(CCC)c2ccccc2-c2c1c1c(c3cc(OC)c(N4CCOc5ccccc54)cc23)OC(c2ccc(OC)cc2)(c2ccc(OC)cc2)C=C1 [Example 10 Formula (59)] |  |
| 1.40 - |  | 1.38 - | 94 |  | 81 | 501 |  | 501 | 0.93 - |  | 0.92 - | 67 |  | 67 | CCCCC1(CCCC)c2ccccc2-c2c1c1c(c3cc(OC)c(N(c4ccc(F)cc4)c4ccc(F)cc4)cc23)OC(c2ccc(OC)cc2)(c2ccc(OC)cc2)C=C1 [Example 12 Formula (66)] |  |
| 1.6 |  | 1.57 - | 96 |  | 83 | 512 |  | 512 | 1.09 - |  | 1.08 - | 68 |  | 69 | CCCC1(CCC)c2ccccc2-c2c1c1c(c3cc(OC)c(N(c4ccccc4)c4ccc(C)cc4)cc23)OC(c2ccc(OC)cc2)(c2ccc(OC)cc2)C=C1 [Example 13 Formula (68)] |  |
| 1.93 |  | 1.89 - | 94 |  | 82 | 521 |  | 521 | 1.36 - |  | 1.33 - | 70 |  | 70 | CCCOc1ccc(C2(c3ccc(OCCC)cc3)C=Cc3c4c(c5cc(N(c6ccc(C)cc6)c6ccc(C)cc6)c(OC)cc5c3O2)-c2ccccc2C4(CCCCOCOC)CCCCOCOC)cc1 [Example 14 Formula (71)] |  |
|  | 1.22 - | 1.20 - |  | 81 | 75 |  | 527 | 523 |  | 0.76 - | 0.74 - |  | 63 | 62 | CCCCCCOc1ccc(C2(c3ccc(OC)cc3)C=Cc3c4c(c5cc(N(c6ccc(C)cc6)c6ccc(OC)cc6)c(OC)cc5c3O2)-c2ccccc2C42CC(C)(C)CC(C)(C)C2)cc1 (centres unmarked) [Example 15 Formula (75)] |  |
|  | 1.09 - | 1.06 - |  | 84 | 78 |  | 562 | 558 |  | 0.75 - | 0.71 - |  | 69 | 67 | CCCOc1ccc(C2(c3ccc(OC)cc3)C=Cc3c4c(c5cc(N(C)c6ccccc6)c(C)cc5c3O2)-c2ccc(C)cc2C4(CCCCOC)CCCCOC)cc1 (centres unmarked) [Example 17 Formula (79)] |  |
